Experimental data: paper PMC10551889 (Bioorganic & medicinal chemistry, 2022)
Entries after “also recorded” stand apart in the source; their conditions may differ.

Tests used:
[1] = system: M. bovis BCG Pasteur ATCC 35734; format: cell-based, Mycobacterium bovis BCG
[2] = system: M. bovis BCG mutant POA2 (PanD Leu132Arg); format: cell-based, Mycobacterium bovis BCG
Mtb PanD = Mtb PanD (Mycobacterium tuberculosis, UniProt P9WIL3); experiment: biochemical; format: binding
Mtb PanD, sequence (P9WIL3 25-139): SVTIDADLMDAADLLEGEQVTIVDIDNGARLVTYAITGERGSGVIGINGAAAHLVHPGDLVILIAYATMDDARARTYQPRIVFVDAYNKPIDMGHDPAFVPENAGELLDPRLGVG
Mtb PanD, sequence (P9WIL3 1-24): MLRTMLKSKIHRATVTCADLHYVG

| Compound | antimycobacterial activity (in words) [1] | also measured |
| --- | --- | --- |
| c1cnc(-c2nnn[nH]2)cn1 [compound 12, 2-(1H-Tetrazol-5-yl)pyrazine] | inactive or weakly active |  |
| NC(=S)c1cnccn1 [compound 13] | inactive or weakly active |  |
| NS(=O)(=O)c1cnccn1 [compound 14] | inactive or weakly active |  |
| CC(=O)NS(=O)(=O)c1cnccn1 [compound 15, N-(Pyrazin-2-ylsulfonyl)acetamide] | inactive or weakly active |  |
| CC(=O)c1cnccn1 [compound 16] | eliminated activity |  |
| Nc1nccnc1C(=O)O [compound 23] |  | shift in growth inhibition potency against PanD mutant vs wildtype (in words) [2]: minimal shift; Kd (Mtb PanD): 37 to 47 µM |
| Nc1cnc(C(=O)O)cn1 [compound 24] |  | shift in growth inhibition potency against PanD mutant vs wildtype (in words) [2]: moderate shift; Kd (Mtb PanD): 37 to 47 µM |
| Nc1cncc(C(=O)O)n1 [compound 25, 6-amino-POA] | loss of activity |  |
| Cc1ccccc1-c1nccnc1C(=O)[O-].[Na+] [compound 36, Sodium 3-(o-tolyl)pyrazine-2-carboxylate] | completed obliterated activity |  |
| O=C([O-])c1cnc(-c2ccccc2)cn1.[Na+] [compound 39, Sodium 5-(phenyl)pyrazine-2-carboxylate] | eliminated activity |  |
| O=C([O-])c1cncc(-c2ccccc2)n1.[Na+] [compound 40, Sodium 6-phenylpyrazine-2-carboxylate] |  | fold less potent than POA [1]: ~2 fold |
| CCNc1cnc(C(=O)[O-])cn1.[Na+] [compound 42, Sodium 5-(ethylamino)pyrazine-2-carboxylate] | Loss of potency |  |
| O=C([O-])c1cnc(NC2CCC2)cn1.[Na+] [compound 48, Sodium 5-(cyclobutylamino)pyrazine-2-carboxylate] | Loss of potency |  |
| CCCNc1nccnc1C(=O)[O-].[Na+] [compound 54, Sodium 3-(propylamino)pyrazine-2-carboxylate] |  | shift in growth inhibition potency against PanD mutant vs wildtype (in words) [2]: moderate shift |
| CC(C)Nc1nccnc1C(=O)[O-].[Na+] [compound 55, Sodium 3-(2-propylamino)pyrazine-2-carboxylate] |  | shift in growth inhibition potency against PanD mutant vs wildtype (in words) [2]: moderate shift |
| CC(C)(C)Nc1nccnc1C(=O)[O-].[Na+] [compound 56, Sodium 3-(tert-butylamino)pyrazine-2-carboxylate] |  | cytotoxicity at higher concentrations (Vero cells): ~ 50% |
| CCN(CC)c1nccnc1C(=O)[O-].[Na+] [compound 58, Sodium 3-(diethylamino)pyrazine-2-carboxylate] | loss of activity | PanD binding (in words) (Mtb PanD): no binding; also recorded: did not bind at all; also recorded: did not bind to PanD |
| O=C([O-])c1nccnc1Nc1ccccc1.[Na+] [compound 59, Sodium 3-(anilino)pyrazine-2-carboxylate] |  | shift in growth inhibition potency against PanD mutant vs wildtype (in words) [2]: moderate shift |
| O=C([O-])c1nccnc1N1CCCC1.[Na+] [compound 62, Sodium 3-(pyrrolidine-1-yl)pyrazine-2-carboxylate] | abolished activity |  |
| O=C([O-])c1nccnc1N1CCCCC1.[Na+] [compound 63, Sodium 3-(piperidin-1-yl)pyrazine-2-carboxylate] | abolished activity |  |
| O=C([O-])c1nccnc1N1CCOCC1.[Na+] [compound 64, Sodium 3-(morpholino)pyrazine-2-carboxylate] | abolished activity |  |
| O=C([O-])c1nccnc1N1CCSCC1.[Na+] [compound 65, Sodium 3-(thiomorpholino)pyrazine-2-carboxylate] | abolished activity |  |
| O=C([O-])c1nccnc1N1CCC2(CC1)CC2.[Na+] [compound 66, Sodium 3-(6-azaspiro[2,5]octan-6-yl)pyrazine-2-carboxylate] | abolished activity |  |
| CCCNc1cnc(C(=O)[O-])cn1.[Na+] [compound 70, Sodium 5-(n-propylamino)pyrazine-2-carboxylate] | Loss of potency |  |
| CC(C)Nc1cnc(C(=O)[O-])cn1.[Na+] [compound 71, Sodium 5-(2-propylamino)pyrazine-2-carboxylate] | Loss of potency |  |
| CCCCNc1cnc(C(=O)[O-])cn1.[Na+] [compound 72, Sodium 5-(n-butylamino)pyrazine-2-carboxylate] |  | MIC50 (MIC, concentration that inhibits fifty percent of growth) [1]: 400 µM |
| CCN(CC)c1cnc(C(=O)[O-])cn1.[Na+] [compound 73, Sodium 5-(diethylamino)pyrazine-2-carboxylate] | equipotent to the parent POA |  |
| O=C([O-])c1cnc(NC2CCCC2)cn1.[Na+] [compound 76, Sodium 5-(cyclopentylamino)pyrazine-2-carboxylate] | Loss of potency |  |
| O=C([O-])c1cncc(NC(=O)C2CCCCC2)n1.[Na+] [compound 80, Sodium 6-(cyclohexanecarboxamido)pyrazine-2-carboxylate] | obliterated activity |  |
